Patent US11312722B2, “Hsp90 inhibitors and uses thereof” (TRUSTEES OF BOSTON UNIVERSITY, priority 2019, dated 2022)
pEC50: −log10 of the molar value. Read-outs that look alike come from different tables or passages of the source.

Assays:
[1] = tested on: C. neoformans (Strain H99); experiment: Antifungal sensitivity testing (MIC), C. neoformans H99; format: cell-based; conditions: for MIC80 / MIC90: Cryptococcus neoformans; for MIC80: read-out: C. neo MIC80; for MIC90: read-out: C. neo MIC90
Experimental: Color scale bar: no growth inhibition (green) to complete inhibition (black). Each shaded box represents the mean of technical duplicates. The experiment was repeated as an independent biological replicate to confirm results.
Minimum inhibitory concentration (MIC) value for compounds against C. neoformans (Strain H99) was determined in dose-response format, in technical duplicate. Experiments were conducted in RPMI medium at 37° C. for 48 h. Relative viable cell number was measured by standard dye reduction (resazurin) assay.
Yeast strains and culture conditions. Strains used in this study were C. albicans CaCi2 (clinical isolate 2), [58] SC5314, [59] and C. neoformans H99. […] Active cultures were maintained on solid (2% agar) yeast extract peptone (YPD, 1% yeast extract, 2% bactopeptone, 2% glucose) at 4° C. for no more than one month.
Antifungal sensitivity testing. […] Each compound was tested in duplicate in at least two independent experiments. […] Plates were photographed after 24 h of incubation at 30° C.

[2] = target: Hsp90 (C. albicans whole cell lysate) (Candida albicans (strain SC5314 / ATCC MYA-2876) (Yeast), UniProt P46598); experiment: biochemical; format: binding; conditions: for C. alb Active (biochemical): Yes/No call
Experimental: All analogs were assessed for Hsp90 binding affinity using a fluorescence polarization (FP)-based equilibrium competition assay in fungal and human whole cell lysates. […] Using lysates, the relative potency and selectivity for fungal Hsp90 was measured versus the entire ensemble of human Hsp90 isoforms in microplate format using small amounts of test materials. […] Thermal shift assays were performed under saturating ligand conditions, i.e. equimolar concentrations (10 μM) of protein and ligand. As a result, they provided qualitative evidence of target binding, but not a quantitative measurement of ligand affinity. For quantitation, a ligand dissociation constant (Ki) for key compounds was also determined using purified NBDs in FP assays and KD measurements were made by surface plasmon resonance (SPR) using a Biacore instrument. Finally, all analogs were assessed for whole cell antifungal activity against the pathogens C. albicans and C. neoformans.
FP assays. Whole cell lysates were prepared for FP assays as described previously. Total protein concentration of human and yeast lysates was determined by Bradford assay. […] Serial dilutions of test Hsp90 inhibitors were then assayed under these same conditions to monitor loss of fluorescence polarization as an indicator of probe displacement from Hsp90. […] Titrations of test compound in 25 μL of binding buffer (supplemented with 0.1 mg/mL bovine gamma globulin), were mixed with an equal volume of freshly prepared whole-cell lysate spiked with Cy3-GdA (0.1 nM). Plates were incubated at room temperature for 4.5 h to achieve equilibrium binding for the geldanamycin-based probe. […] Non-linear 4-parameter curve fitting of raw displacement data was performed in GraphPad Prism 5.0 to determine EC50 values as a measure of relative Hsp90-binding affinity. Results were normalized to the value determined for GdA in lysate of each cell type.
Statistical methods. […] In calculating the error of selectivity determinations, the fractional error of measurements in each species was summed to yield a composite error for the derived ratio.

MIC80 [1] [µM]	MIC90 [1] [µM]	C. alb Active (biochemical) [2]	pEC50 ([2]; read-out: C. alb EC50)	SMILES	other results
> 25	> 25	Yes	–	Cc1ccc(-c2cc(Nc3cc(O)cc(O)c3C(=O)N3Cc4ccccc4C3)n(C)n2)cc1 [Compound 118, 4-(2,3-Dihydro-1H-isoindole-2-carbonyl)-5-((1-methyl-3-(4-methylphenyl)-1H-pyrazol-5-yl)amino)benzene-1,3-diol]	–
–	–	Yes	5.38	Cn1nc(-c2cccc(Cl)c2)cc1Nc1cc(O)cc(O)c1C(=O)N1Cc2ccccc2C1 [ACSM01362]	–
> 25	> 25	Yes	–	Cn1nc(-c2ccccc2)cc1Nc1cc(O)cc(O)c1C(=O)N1Cc2cccnc2C1 [Compound 92, 5-((1-Methyl-3-phenyl-1H-pyrazol-5-yl)amino)-4-(5H,6H,7H-pyrrolo[3,4-b]pyridine-6-carbonyl)benzene-1,3-diol]	–
> 25	> 25	Yes	–	Cn1nc(-c2cccc(C(F)(F)F)c2)cc1Nc1cc(O)cc(O)c1C(=O)N1Cc2cn[nH]c2C1 [Compound 117, 5-((1-Methyl-3-(3-(trifluoromethyl)phenyl)-1H-pyrazol-5-yl)amino)-4-(1H,4H,5H,6H-pyrrolo[3,4-c]pyrazole-5-carbonyl)benzene-1,3-diol]	–
–	–	Yes	5.90	Cn1nc(-c2cccc(F)c2)cc1Nc1cc(O)cc(O)c1C(=O)N1Cc2ccccc2C1 [ACSM01345]	–
–	–	Yes	6.04	Cc1ccccc1-c1cc(Nc2cc(O)cc(O)c2C(=O)N2Cc3ccc(F)cc3C2)n(C)n1 [ACSM01135]	–
–	–	Yes	5.27	COc1ccccc1-c1cc(Nc2cc(O)cc(O)c2C(=O)N2CC[C@H](N)C2)n(C)n1 [ACSM01271]	C. neo MIC80 [1]: >25 µM; C. neo MIC90 [1]: >25 µM
–	–	Yes	5.78	Cc1ccc(F)c(-c2cc(Nc3cc(O)cc(O)c3C(=O)N3Cc4ccccc4C3)n(C)n2)c1 [ACSM01268]	–
> 25	> 25	Yes	–	Cn1nccc1Nc1cc(O)cc(O)c1C(=O)N1Cc2cn[nH]c2C1 [Compound 58, 5-((1-Methyl-1H-pyrazol-5-yl)amino)-4-(1H,4H,5H,6H-pyrrolo[3,4-c]pyrazole-5-carbonyl)benzene-1,3-diol]	–
> 25	> 25	–	–	COc1ccc(-c2cc(Nc3cc(O)cc(O)c3C(=O)N3Cc4ccccc4C3)n(C)n2)cc1 [Compound 121, 4-(2,3-Dihydro-1H-isoindole-2-carbonyl)-5-((3-(4-methoxyphenyl)-1-methyl-1H-pyrazol-5-yl)amino)benzene-1,3-diol]	C. neo Active (cells) ([1]; Yes/No call): No
> 25	> 25	Yes	–	Cc1ccc(-c2cc(Nc3cc(O)cc(O)c3C(=O)N3Cc4cn[nH]c4C3)n(C)n2)cc1 [Compound 120, 5-((1-Methyl-3-(4-methylphenyl)-1H-pyrazol-5-yl)amino)-4-(1H,4H,5H,6H-pyrrolo[3,4-c]pyrazole-5-carbonyl)benzene-1,3-diol]	–
–	–	Yes	–	Cc1cccc(-c2cc(Nc3cc(O)cc(O)c3C(=O)N3Cc4ccccc4C3)n(C)n2)c1F [ACSM01273]	–
–	–	–	–	COc1ccc(Cn2nc(C)cc2Nc2cc(O)cc(O)c2C(=O)N(C)Cc2ccccc2)cc1 [Compound 37, N-Benzyl-2,4-dihydroxy-6-((1-((4-methoxyphenyl)methyl)-3-methyl-1H-pyrazol-5-yl)amino)-N-methylbenzamide]	pEC50 ([2]; FP competition, whole cell lysate, duplicate, screening experiment, read-out: C. albicans EC50): < 5.22
–	–	Yes	5.65	Cn1nc(-c2cccc(F)c2F)cc1Nc1cc(O)cc(O)c1C(=O)N1Cc2ccccc2C1 [ACSM01269]	–
–	–	Yes	5.21	Cc1cccc(-c2cc(Nc3cc(O)cc(O)c3C(=O)N3Cc4ccccc4C3)n(C)n2)c1C [ACSM01272]	–
–	–	Yes	5.95	Cn1nc(-c2cc(F)ccc2F)cc1Nc1cc(O)cc(O)c1C(=O)N1Cc2ccccc2C1 [ACSM01270]	–
